In patent publication US8852664B2, “Neo-menthyl derivatives as flavor materials” (Symrise AG, priority 2008, dated 2014):

Assay: Flavor profile determined by a trained panel of at least 5 testers
Type: in vivo
Settings: table of further examples, prepared from racemic neo-menthol or neo-menthylamine and tasted
Description: The flavor profiles were determined by a trained panel of at least 5 testers by tasting against a 0.5% strength salt and a 0.5% strength sugar solution
For CCNC(=O)O[C@H]1C[C@H](C)CC[C@H]1C(C)C (racemic), the “Flavor Profile” value was “cooling, umami, menthol note”.
In the case of CC(C)[C@@H]1CC[C@@H](C)C[C@@H]1OC(=O)NCCCO (racemic), the “Flavor Profile” value is reported as “soapy, vegetable, asparagus, potato, mouthfeel, slightly umami”.
For COCCNC(=O)O[C@H]1C[C@H](C)CC[C@H]1C(C)C (racemic), the “Flavor Profile” value was “sweet, umami”.
For COCCNC(=O)N[C@H]1C[C@H](C)CC[C@H]1C(C)C (racemic), the “Flavor Profile” value was “fishy, salty, umami”.
For CCOCCCNC(=O)O[C@H]1C[C@H](C)CC[C@H]1C(C)C (racemic), the “Flavor Profile” value was “rancid, musty, bitter, umami”.
In the case of CC(C)[C@@H]1CC[C@@H](C)C[C@@H]1NC(=O)NCCOCCO (racemic), the “Flavor Profile” value is reported as “fatty, oily (fish), umami”.
With CCOCCCNC(=O)N[C@H]1C[C@H](C)CC[C@H]1C(C)C (racemic) the “Flavor Profile” value was “fatty, tallow, dry- dusty, long-lasting, umami”.
For CC(C)[C@@H]1CC[C@@H](C)C[C@@H]1NC(=O)NCCO (racemic), the “Flavor Profile” value was “alga, roasted note, umami, sweet”.
With CC(C)[C@@H]1CC[C@@H](C)C[C@@H]1OC(=O)NCCOCCO (racemic) the “Flavor Profile” value was “fatty, tallow, oily, salty, metallic”.
In the case of CC(C)[C@@H]1CC[C@@H](C)C[C@@H]1OC(=O)NCC1CCCO1 (mixture of isomers), the “Flavor Profile” value is reported as “bitter, long-lasting, umami”.
With CC(C)[C@@H]1CC[C@@H](C)C[C@@H]1OC(=O)NC1CCCC1 (racemic) the “Flavor Profile” value was “bitter, salty”.
In the case of CC(C)[C@@H]1CC[C@@H](C)C[C@@H]1NC(=O)NCc1ccccc1 (racemic), the “Flavor Profile” value is reported as “long-lasting, umami”.
In the case of CC(C)[C@@H]1CC[C@@H](C)C[C@@H]1NC(=O)NC1CCCC1 (racemic), the “Flavor Profile” value is reported as “bitter, astringent, long-lasting, salty, metallic”.
With CC(C)[C@@H]1CC[C@@H](C)C[C@@H]1NC(=O)NCC1CCCO1 (mixture of isomers) the “Flavor Profile” value was “salty, weakly umami”.
For CC(C)[C@@H]1CC[C@@H](C)C[C@@H]1NC(=O)NCC1COC(C)(C)O1 (mixture of isomers), the “Flavor Profile” value was “sweet, umami”.
In the case of COCC(C)NC(=O)O[C@H]1C[C@H](C)CC[C@H]1C(C)C (mixture of isomers), the “Flavor Profile” value is reported as “bitter, metallic, umami”.
With CC(C)[C@@H]1CC[C@@H](C)C[C@@H]1OC(=O)NCc1ccc2c(c1)OCO2 (racemic) the “Flavor Profile” value was “bitter, umami”.
With CC(C)[C@@H]1CC[C@@H](C)C[C@@H]1NC(=O)NC1CC1 (racemic) the “Flavor Profile” value was “bitter, long-lasting, salty, umami”.
With CC(C)[C@@H]1CC[C@@H](C)C[C@@H]1NC(=O)NCc1ccc2c(c1)OCO2 (racemic) the “Flavor Profile” value was “salty, weakly umami”.
In the case of CC(C)[C@@H]1CC[C@@H](C)C[C@@H]1OC(=O)NC1CCCCC1 (racemic), the “Flavor Profile” value is reported as “weakly sweet and weakly umami”.
In the case of CC(C)[C@@H]1CC[C@@H](C)C[C@@H]1OC(=O)NCC1COC(C)(C)O1 (mixture of isomers), the “Flavor Profile” value is reported as “sweet, bitter, caramel, salty”.
In the case of CCOC(=O)CC(C)NC(=O)O[C@H]1C[C@H](C)CC[C@H]1C(C)C (mixture of isomers), the “Flavor Profile” value is reported as “bitter, dry-dusty, tingling, slightly umami”.
For CC(C)[C@@H]1CC[C@@H](C)C[C@@H]1OC(=O)NC1CC1 (racemic), the “Flavor Profile” value was “bitter, salty, umami”.
For CC(C)[C@@H]1CC[C@@H](C)C[C@@H]1OC(=O)Nc1ccccc1 (racemic), the “Flavor Profile” value was “bitter, dry, dusty, umami, dull”.
With CC(C)[C@@H]1CC[C@@H](C)C[C@@H]1OC(=O)NCCCCO (racemic) the “Flavor Profile” value was “slightly bitter, salty, umami”.
For CC(C)[C@@H]1CC[C@@H](C)C[C@@H]1NC(=S)NC1CCCC1 (racemic), the “Flavor Profile” value was “bitter, long-lasting, umami, metallic”.
For COCCCNC(=S)N[C@H]1C[C@H](C)CC[C@H]1C(C)C (racemic), the “Flavor Profile” value was “very bitter, umami”.
With CCNC(=S)N[C@H]1C[C@H](C)CC[C@H]1C(C)C (racemic) the “Flavor Profile” value was “bitter, dry-dusty, umami”.
For COCC(C)NC(=S)N[C@H]1C[C@H](C)CC[C@H]1C(C)C (mixture of isomers), the “Flavor Profile” value was “bitter, slightly umami”.
For CC(C)[C@@H]1CC[C@@H](C)C[C@@H]1NC(=S)NC1CC1 (racemic), the “Flavor Profile” value was “bitter, mouthfeel, umami”.

Same assay, conditions: trained panel of at least 5 testers, tasting against a 0.5% strength salt and a 0.5% strength sugar solution
With “1-(3-Hydroxy-propyl)-3-((1S,2S,5R)-2-isopropyl-5-methyl-cyclohexyl)-urea (3)/1-(3-Hydroxy-propyl)-3-((1R,2R,5S)-2-isopropyl-5-methyl-cyclohexyl)-urea (4) [Synthesis Example 2]” the “Flavor Profile” value was “fishy, salty, weakly umami”.
With “1-((1S,2S,5R)-2-Isopropyl-5-methyl-cyclohexyl)-3-(2-methoxy-1-methyl-ethyl)-urea (5)/1-((1R,2R,5S)-2-isopropyl-5-methyl-cyclohexyl)-3-(2-methoxy-1-methyl-ethyl)-urea (6) [Synthesis Example 3]” the “Flavor Profile” value was “long-lasting, salty, umami”.
With “1-((1S,2S,5R)-2-Isopropyl-5-methyl-cyclohexyl)-3-(3-methoxy-propyl)-urea (1)/1-((1R,2R,5S)-2-isopropyl-5-methyl-cyclohexyl)-3-(3-methoxy-propyl)-urea (2) [Synthesis Example 1]” the “Flavor Profile” value was “sweet, salty, metallic, umami”.
For “3-[3-((1S,2S,5R)-2-Isopropyl-5-methyl-cyclohexyl)-ureido]-butyric acid ethyl ester (7)/3-[3-((1R,2R,5S)-2-isopropyl-5-methyl-cyclohexyl)-ureido]-butyric acid ethyl ester (8) [Synthesis Example 4]”, the “Flavor Profile” value was “bitter, salty, metallic, umami”.
With “4-((1S,2S,5R)-2-Isopropyl-5-methyl-cyclohexyloxycarbonylamino)-butyric acid ethyl ester (11)/4-((1R,2R,5S)-2-isopropyl-5-methyl-cyclohexyloxycarbonylamino)-butyric acid ethyl ester (12) [Synthesis Example 6]” the “Flavor Profile” value was “bitter, salty, umami”.
With COCCCNC(=O)O[C@H]1C[C@H](C)CC[C@H]1C(C)C [(9), (3-methoxy-propyl)-carbamic acid (1S,2S,5R)-2-isopropyl-5-methyl-cyclohexyl ester] the “Flavor Profile” value was “umami, salty, metallic, bitter”.
In the case of COCCCNC(=O)O[C@@H]1C[C@@H](C)CC[C@@H]1C(C)C [(10), (3-methoxy-propyl)-carbamic acid (1R,2R,5S)-2-isopropyl-5-methyl-cyclohexyl ester], the “Flavor Profile” value is reported as “umami, salty, metallic, not bitter”.
In the case of CCOC(=O)CCCNC(=O)O[C@H]1C[C@H](C)CC[C@H]1C(C)C [(11), 4-((1S,2S,5R)-2-isopropyl-5-methyl-cyclohexyloxycarbonylamino)-butyric acid ethyl ester], the “Flavor Profile” value is reported as “salty, umami, relatively weak in comparison with the racemate”.
For CCOC(=O)CCCNC(=O)O[C@@H]1C[C@@H](C)CC[C@@H]1C(C)C [(12), 4-((1R,2R,5S)-2-isopropyl-5-methyl-cyclohexyloxycarbonylamino)-butyric acid ethyl ester], the “Flavor Profile” value was “salty, umami, delayed and weaker in comparison with the racemate”.
In the case of “(3-Methoxy-propyl)-carbamic acid (1S,2S,5R)-2-isopropyl-5-methyl-cyclohexyl ester (9) and (3-methoxy-propyl)-carbamic acid (1R,2R,5S)-2-isopropyl-5-methyl-cyclohexyl ester (10) [Synthesis Example 5]”, the “Flavor Profile” value is reported as “sweet, salty, umami, slightly bitter”.

Assay: Saltiness of a stock tasted against a reference series of the same stock with different salt contents
Type: in vivo
Settings: stock with salt content 0.3% and 3 ppm added, reference series 0.2%, 0.4%, 0.5% salt
Excerpt: In another test, the saltiness of a stock having a salt content of 0.3% and 5 ppm of an equimolar mixture of 1-(3-hydroxy-propyl)-3-((1S,2S,5R)-2-isopropyl-5-methyl-cyclohexyl)-urea (3) and 1-(3-hydroxy-propyl)-3-((1R,2R,5S)-2-isopropyl-5-methyl-cyclohexyl)-urea (4) added was tasted. The testers evaluated this stock against a reference series of this same stock with salt contents of 0.2%, 0.3%, 0.4% and 0.5%. The saltiness of the stock with a salt content of 0.3% and 5 ppm of an equimolar mixture of 1-(3-hydroxy-propyl)-3-((1S,2S,5R)-2-isopropyl-5-methyl-cyclohexyl)-urea (3) and 1-(3-hydroxy-propyl)-3-((1R,2R,5S)-2-isopropyl-5-methyl-cyclohexyl)-urea (4) added was evaluated with a saltiness of 0.36% on average.
In another test, the saltiness of a stock having a salt content of 0.3% and 3 ppm of an equimolar mixture of (3-methoxy-propyl)-carbamic acid (1S,2S,5R)-2-isopropyl-5-methyl-cyclohexyl ester (9) and (3-methoxy-propyl)-carbamic acid (1R,2R,5S)-2-isopropyl-5-methyl-cyclohexyl ester (10) was tasted. The testers evaluated this stock against a reference series of this same stock with salt contents of 0.2%, 0.3%, 0.4% and 0.5%. […]
For “(3-Methoxy-propyl)-carbamic acid (1S,2S,5R)-2-isopropyl-5-methyl-cyclohexyl ester (9) and (3-methoxy-propyl)-carbamic acid (1R,2R,5S)-2-isopropyl-5-methyl-cyclohexyl ester (10) [Synthesis Example 5]”, the “saltiness evaluated on average” value was 0.35%.

Same assay, conditions: stock with salt content 0.3% and 5 ppm added, reference series 0.2%, 0.4%, 0.5% salt
In the case of “1-(3-Hydroxy-propyl)-3-((1S,2S,5R)-2-isopropyl-5-methyl-cyclohexyl)-urea (3)/1-(3-Hydroxy-propyl)-3-((1R,2R,5S)-2-isopropyl-5-methyl-cyclohexyl)-urea (4) [Synthesis Example 2]”, the “saltiness evaluated on average” value is reported as 0.36%.

Assay: Flavor comparison in American beef extract base (FIG. 1), panel of trained testers
Type: in vivo
Settings: 1 ppm of 1:1 mixture in American beef extract base vs base with 0.05 wt. % MSG
Excerpt: This is also shown by the spider diagram appended as FIG. 1, in which an American beef extract as a base is compared with (i) such a base having 1 ppm of a 1:1 mixture of 1-((1S,2S,5R)-2-isopropyl-5-methyl-cyclohexyl)-3-(3-methoxy-propyl)-urea (1) and 1-((1R,2R,5S)-2-isopropyl-5-methyl-cyclohexyl)-3-(3-methoxy-propyl)-urea (2) added and (ii) with such a base having 0.05 wt. % of MSG (sodium glutamate) added. The observations above apply accordingly for all mixtures to be used according to the invention.
The flavor of a 0.5% American beef extract as the base (solid dark line) was compared with the aid of tasting by a panel of trained testers with the flavor firstly of such a base to which 1 ppm of a mixture of 1-((1S,2S,5R)-2-isopropyl-5-methyl-cyclohexyl)-3-(3-methoxy-propyl)-urea (1) and 1-((1R,2R,5S)-2-Isopropyl-5-methyl-cyclohexyl)-3-(3-methoxy-propyl)-urea (2) was added (solid light line), and secondly such a base to which 0.05 wt. % MSG was added (dotted line).
The testers evaluated the strength of the test directions indicated, in each case by specifying marks on a scale of from 0 (no corresponding flavor) to 8 (very strong corresponding flavor). The average values of the respective marks are represented.
In the case of “1-((1S,2S,5R)-2-Isopropyl-5-methyl-cyclohexyl)-3-(3-methoxy-propyl)-urea (1)/1-((1R,2R,5S)-2-isopropyl-5-methyl-cyclohexyl)-3-(3-methoxy-propyl)-urea (2) [Synthesis Example 1]”, the “flavor compared with sodium glutamate (MSG)” value is reported as “clear umami flavor very closely approximating sodium glutamate (MSG), which also significantly enhances the saltiness of the base but without tasting unpleasantly sweet”.
